Tests used:
[1] = system: IL-1β; experiment: IL-1β levels in the ILG of rabbits with DED (ELISA); assay type: in vivo, rabbit
Method: (§1) Using this model, we compared the effect of PS to that of cyclosporine and lifitegrast. Rabbits were treated for 6 days with PS as above or cyclosporine 0.05% or lifitegrast 5% eye drops 3×/day. In addition to determining TUBT, osmolarity and STT, we measured the levels of IL-8 and IL-1β in the ILGs of the rabbits harvested at euthanasia. Both of these cytokines are significant mediators of inflammation in DED. As shown in the table below, PS had statistically significant effects on TBUT, tear osmolarity, IL-8 and IL-1β levels. […] Of note, lifitegrast suppressed STT below the levels of the vehicle group and this suppression was statistically significant, but in the opposite direction for a useful therapeutic effect.
(§2) Moreover, for all three cytokines PS suppressed their unstimulated levels as well (62%, 84% and 4.7% reduction, respectively). In addition, PS suppressed the levels of IL-8 by 64% and IL-1β (not expressed by the cultured cells) by 61% in the ILG of rabbits treated with PS for 1 week compared to controls treated with vehicle (FIG. 8B). TGF-β was not detectable by the method in ILG homogenates. All these changes were statistically significant (p<0.001-0.04, except for the unstimulated TGF-β).

[2] = system: JNK and Erk1/2; experiment: MAPK activation by phosphorylation in human conjunctival cells (immunoblot); assay type: cell-based; settings: 3.5 h, FIG. 6B
Method: FIGS. 6A and 6B illustrate that PS suppresses the activation of NF-κB and MAPKs. In FIG. 6A, NF-κB activation was determined by EMSA in cultured human conjunctival cells stimulated with TNFα (top) and in the ILG of rabbits with Con A-induced DED and treated for one week with either vehicle or PS (bottom). In FIG. 6B, immunoblots detecting the activation of MAPKs by phosphorylation in cultured human conjunctival cells treated with PS at the indicated concentrations for 3.5 h. Loading control: β-actin.
Our conjunctiva cells express only the JNK and Erk1/2 pathways.

[3] = system: IL-8; experiment: IL-8 levels in the ILG of rabbits with DED (ELISA); assay type: in vivo, rabbit
Method: as §1, §2

[4] = system: cornea of New Zealand white rabbits; experiment: Corneal touch threshold (CTT), Cochet-Bonnet aesthesiometer; assay type: in vivo, rabbit
Method: The analgesic effect of PS was determined by measuring the corneal touch threshold (CTT) using the Luneau Cochet-Bonnet Aeshesiometer (Western Ophthalmics, Lynwood, Wash.), an adjustable nylon monofilament with a defined diameter, which is applied in different lengths to the center of the cornea. This device is generally described in Lima L, Lange R R, Turner-Giannico A, Montiani-Ferreira F. Evaluation of standardized endodontic paper point tear test in New Zealand white rabbits and comparison between corneal sensitivity followed tear tests. Vet Ophthalmol. 2015; 18 Suppl 1:119-24.
A stimulus produced by the filament that reaches the CTT induces a corneal reflex, consisting of prompt eyelid closure. The CTT is quantified as centimeter length of the filament necessary to cause the blink reflex.
The CTT is determined before (baseline) and at various time points after the application of the test compound (PS). PS was formulated either in β-cyclodextrin (42 or 8 mg/ml) or in a nanocarrier (19 mg/ml). The test drug was formulated in a nanocarrier by the emulsion and evaporation method (Vauthier C, Bouchemal K. Methods for the Preparation and Manufacture of Polymeric Nanoparticles. Pharmaceutical Research; 2009; 26:1025-1058). The formulated stable drug suspension consisted of polylactic acid and polyethylene glycol (PLLA(10k)-PEG(2k)); sodium cholate; and PS. The vehicle control was either β-cyclodextrin or the nanocarrier without PS. Commercially available lidocaine 1% was used as a positive control.
To each eye of adult New Zealand white rabbits was applied […] drops of PS or vehicle or lidocaine, with 5 minutes between each drop. The time of the last drop was taken as the 0 time.
The analgesic effect of PS was further examined on the surface of the eye by determining the corneal touch threshold (CTT) using the Luneau Cochet-Bonnet Aesthesiometer (Western Ophthalmics, Lynwood, Wash.) an adjustable nylon monofilament with a defined diameter, which is applied in different lengths to the center of the cornea.

[5] = system: IL-8; experiment: IL-8 in culture medium of human conjunctival cells (ELISA); assay type: cell-based
Method: Culture media were harvested 24 h later and the levels of TGF-β, IL-6 and IL-8 were determined by ELISA. Of note, the levels of IL-1β were below the limit of detection.

[6] = system: MMP-9; experiment: MMP-9 levels in lacrimal gland and aqueous humor of rabbits with DED (ELISA); assay type: in vivo, rabbit
Method: In an in vitro assay with purified MMP-1 (collagenase I) as […] it was shown that PS inhibited collagenase activity with an IC50 of <100 nM. In cultured human conjunctiva cells, PS suppressed MMP-1 by 75%-86%. In the lacrimal glands of rabbits with DED treated with PS eye drops, PS suppressed MMP-9 levels by 27% compared to vehicle treated rabbits (2.20±0.24 vs. 1.66±0.20 ng/mg protein; p<0.05; mean±SEM).

[7] = Con A DED rabbits, 6 days, eye drops 3×/day, PS nanoparticles, cyclosporine 0.05%, lifitegrast 5%, mean ± SEM
[8] = rabbits treated with PS for 1 week vs vehicle

Compound: CCOP(=O)(OCC)OCCCCOC(=O)CC1=C(C)/C(=C/c2ccc([S+](C)[O-])cc2)c2ccc(F)cc21 (centres unmarked) [PS, phosphosulindac]
- IL-1β in the ILG [1, 7]: 8.4 ± 1.2 pg/mg protein
- suppression of IL-1β levels in the ILG [1, 8]: 61%
- activation by phosphorylation of JNK and Erk1/2 [2]: profoundly suppressed
- IL-8 in the ILG [3, 7]: 4.9 ± 1.7 pg/mg protein
- suppression of IL-8 levels in the ILG [3, 8]: 64%
- Corneal touch threshold (CTT) ([4]; PS 8 mg/ml in β-cyclodextrin, 1 min): 5.3 ± 0.7 centimeter
- Corneal touch threshold (CTT) ([4]; PS 8 mg/ml in β-cyclodextrin, 5 min): 5.4 ± 0.8 centimeter
- Corneal touch threshold (CTT) ([4]; PS 8 mg/ml in β-cyclodextrin, 10 min): 5.6 ± 0.5 centimeter
- Corneal touch threshold (CTT) ([4]; PS 8 mg/ml in β-cyclodextrin, 20 min): 5.6 ± 0.5 centimeter
- Corneal touch threshold (CTT) ([4]; PS 8 mg/ml in β-cyclodextrin, 30 min): 5.9 ± 0.3 centimeter
- Corneal touch threshold (CTT) ([4]; PS 8 mg/ml in β-cyclodextrin, 45 min): 5.9 ± 0.3 centimeter
- Corneal touch threshold (CTT) ([4]; PS 8 mg/ml in β-cyclodextrin, 60 min): 5.9 ± 0.3 centimeter
- Corneal touch threshold (CTT) ([4]; PS 8 mg/ml in β-cyclodextrin, baseline): 5.9 ± 0.3 centimeter
- Corneal touch threshold (CTT) ([4]; PS 19 mg/ml in nanocarrier, 1 min): 5.4 ± 0.6 centimeter
- Corneal touch threshold (CTT) ([4]; PS 19 mg/ml in nanocarrier, 5 min): 5.1 ± 0.8 centimeter
- Corneal touch threshold (CTT) ([4]; PS 19 mg/ml in nanocarrier, 10 min): 5.3 ± 0.8 centimeter
- Corneal touch threshold (CTT) ([4]; PS 19 mg/ml in nanocarrier, 20 min): 5.5 ± 0.7 centimeter
- Corneal touch threshold (CTT) ([4]; PS 19 mg/ml in nanocarrier, 30 min): 5.9 ± 0.2 centimeter
- Corneal touch threshold (CTT) ([4]; PS 19 mg/ml in nanocarrier, 45 min): 5.9 ± 0.4 centimeter
- Corneal touch threshold (CTT) ([4]; PS 19 mg/ml in nanocarrier, 60 min): 5.9 ± 0.2 centimeter
- Corneal touch threshold (CTT) ([4]; PS 19 mg/ml in nanocarrier, baseline): 5.9 ± 0.3 centimeter
- Corneal touch threshold (CTT) ([4]; PS 42 mg/ml in β-cyclodextrin, 1 min): 2.7 ± 1.0 centimeter
- Corneal touch threshold (CTT) ([4]; PS 42 mg/ml in β-cyclodextrin, 5 min): 3.1 ± 1.2 centimeter
- Corneal touch threshold (CTT) ([4]; PS 42 mg/ml in β-cyclodextrin, 10 min): 3.7 ± 1.3 centimeter
- Corneal touch threshold (CTT) ([4]; PS 42 mg/ml in β-cyclodextrin, 20 min): 4.1 ± 1.4 centimeter
- Corneal touch threshold (CTT) ([4]; PS 42 mg/ml in β-cyclodextrin, 30 min): 5.1 ± 1.0 centimeter
- Corneal touch threshold (CTT) ([4]; PS 42 mg/ml in β-cyclodextrin, 45 min): 5.6 ± 0.7 centimeter
- Corneal touch threshold (CTT) ([4]; PS 42 mg/ml in β-cyclodextrin, 60 min): 5.9 ± 0.2 centimeter
- Corneal touch threshold (CTT) ([4]; PS 42 mg/ml in β-cyclodextrin, baseline): 5.9 ± 0.2 centimeter
- analgesia (CTT) ([4]; single eye drop, naïve rabbits, FIG. 10): essentially instantaneous and significant analgesia
- IL-8 reduction ([5]; TNF-α-stimulated, PS 1×IC50, media at 24 h): 92%
- IL-8 reduction ([5]; unstimulated levels, PS 1×IC50): 62%
- MMP-9 levels suppression compared to vehicle ([6]; lacrimal glands of rabbits with DED, PS eye drops): 27%
- MMP-9 levels ([6]; lacrimal glands of rabbits with DED, PS eye drops, mean±SEM): 1.66±0.20 ng/mg protein
- MMP-9 levels in the ILG and the aqueous humor ([6]; rabbits with DED treated with PS for 1 week): back to normal

Reference: patent US11510931B2, “Compositions and methods for treating ophthalmic conditions” (MEDICON PHARMACEUTICALS, INC., priority 2016, dated 2022)
